{"source": "patent US12102085B2", "about": "“Insecticidal active mixtures comprising carboxamide compound” (priority 2013, dated 2024)", "type_in_all_cases": "in vivo", "key": {"[1]": {"tested_on": "yellow fever mosquito (Aedes aegypti)", "test": "Test B.3 Control of yellow fever mosquito, larvae in 96-well microtiter plates", "details": "2 days, larval mortality", "method": "Test Principle: Curative Ultrasonic Spraying of Larvae in Liquid Diet\nFor evaluating control of yellow fever mosquito (Aedes aegypti) the test unit consisted of 96-well-microtiter plates containing 200 μl of tap water per well and 5-15 freshly hatched A. aegypti larvae.\nThe compounds or mixtures were formulated using a solution containing 75% (v/v) water and 25% (v/v) DMSO. Different concentrations of formulated compounds or mixtures were sprayed onto the insect diet at 2.5 μl, using a custom built micro atomizer, at two replications.\n(§1) For the experimental mixtures in this test identical volumes of both mixing partners at the desired concentrations respectively, were mixed together.\nAfter application, microtiter plates were incubated at 28±1° C., 80±5% RH for 2 days.\nLarval mortality was then visually assessed."}, "[2]": {"tested_on": "Southern Green Stink Bug (Nezara viridula)", "test": "Test B.6 Control of Southern Green Stink Bug, dipped green beans and dipped insects", "details": "for Average Control % [observed mortality]: Nezara viridula 4th instar, 5 ppm, after 5 days", "method": "The compounds and respective mixtures were formulated using a solution containing 50:50 water:acetone with 0.01 wt % Kinetic®. Whole Green Beans were rinsed in a 1% bleach solution, triple rinsed with DI water, and allowed to air dry at least 30 minutes in the fume hood. They were dipped in treatment solutions for approximately 5 seconds and allowed to air dry for another 30 minutes in the fume hood. For maximum exposure, Southern Green Stink Bugs (SGSB, 4th instar) were dipped in treatment solution for approximately 3 seconds and allowed to air dry in a cup lined with filter paper and closed with a vented lid for approximately 10 minutes in the fume hood. Three beans were placed in cups with a dry filter paper in the bottom and a portion cup with a cotton wick for water (=assay arena), and were infested with 4 SGSB per cup. Each treatment was replicated 3-fold (1 replicate=3 beans with 4 SGSB). The assays arenas were held at 27° C. and 45% room humidity. Data were recorded after 5 days as number of insects alive and dead. Nezara viridula mortality (%) was calculated as: [(pre-treatment count−post treatment count)/pre-treatment count]×100."}, "[3]": {"tested_on": "vetch aphid (Megoura viciae)", "test": "Test B.1 Control of vetch aphid, sprayed broad bean leaf disks in 24-well microtiter plates", "details": "5 days, aphid mortality and fecundity", "method": "For evaluating control of vetch aphid (Megoura viciae) through contact or systemic means the test unit consisted of 24-well-microtiter plates containing broad bean leaf disks.\nThe compounds or mixtures were formulated using a solution containing 75% (v/v) water and 25% (v/v) DMSO. Different concentrations of formulated compounds or mixtures were sprayed onto the leaf disks at 2.5 μl, using a custom built micro atomizer, at two replications.\nas §1\nAfter application, the leaf disks were air-dried and 5-8 adult aphids placed on the leaf disks inside the microtiter plate wells. The aphids were then allowed to suck on the treated leaf disks and incubated at 23±1° C., 50±5% RH for 5 days.\nAphid mortality and fecundity was then visually assessed."}, "[4]": {"tested_on": "tobacco budworm (Heliothis virescens)", "test": "Test B.4 Control of tobacco budworm, insect diet with eggs in 96-well microtiter plates", "details": "5 days, egg and larval mortality", "method": "For evaluating control of tobacco budworm (Heliothis virescens) the test unit consisted of 96-well-microtiter plates containing an insect diet and 15-25 H. virescens eggs.\nThe compounds or mixtures were formulated using a solution containing 75% (v/v) water and 25% (v/v) DMSO. Different concentrations of formulated compounds or mixtures were sprayed onto the insect diet at 10 μl, using a custom built micro atomizer, at two replications.\nas §1\n(§2) After application, microtiter plates were incubated at 28±1° C., 80±5% RH for 5 days.\n(§3) Egg and larval mortality was then visually assessed."}, "[5]": {"tested_on": "boll weevil (Anthonomus grandis)", "test": "Test B.2 Control of boll weevil, insect diet with eggs in 24-well microtiter plates", "details": "5 days, egg and larval mortality", "method": "For evaluating control of boll weevil (Anthonomus grandis) the test unit consisted of 24-well-microtiter plates containing an insect diet and 20-30 A. grandis eggs.\nThe compounds or mixtures were formulated using a solution containing 75% (v/v) water and 25% (v/v) DMSO. Different concentrations of formulated compounds or mixtures were sprayed onto the insect diet at 20 μl, using a custom built micro atomizer, at two replications.\nas §1\nAfter application, microtiter plates were incubated at 23±1° C., 50±5% RH for 5 days.\nas §3"}, "[6]": {"tested_on": "Mediterranean fruitfly (Ceratitis capitata)", "test": "Test B.5 Control of Mediterranean fruitfly, insect diet with eggs in 96-well microtiter plates", "details": "5 days, egg and larval mortality", "method": "For evaluating control of Mediterranean fruitfly (Ceratitis capitata) the test unit consisted of 96-well-microtiter plates containing an insect diet and 50-80 C. capitata eggs.\nThe compounds and respective mixtures were formulated using a solution containing 75% (v/v) water and 25% (v/v) DMSO. Different concentrations of formulated compounds and mixtures were sprayed onto the insect diet at 5 μl, using a custom built micro atomizer, at two replications. For the experimental mixtures in this test identical volumes of both mixing partners at the desired concentrations respectively, were mixed together.\nas §2, §3"}, "[7]": {"details": "Nezara viridula, 120 h, read-out: Average Control % [observed mortality]"}}, "data": [{"compound": "Cc1c(COC(=O)[C@@H]2[C@H](/C=C(\\Cl)C(F)(F)F)C2(C)C)cccc1-c1ccccc1", "note": "(racemic) [Bifenthrin, bifenthrin]", "values": [{"measurement": "Average Control %", "setting": "[1]; 40 + 0 ppm", "result": 0, "unit": "%"}]}, {"compound": "CC(C)(C)[C@]1(O)C[C@@H]2OC(=O)C[C@@]23C(=O)O[C@@H]2OC(=O)[C@H](O)[C@]213", "note": "[Bilobalid, (3aS,5aR,8aS,9R,10aR)-9-tert-butyl-8,9-dihydroxydihydro-9H-furo[2,3-b]furo[3′,2′;2,3]cyclopenta[1,2-c]furan-2,4,7(3H,8H)-trione]", "values": [{"measurement": "Average Control % [observed mortality]", "setting": "[2]", "result": 19, "unit": "%"}, {"measurement": "Average Control %", "setting": "[3]; 25 ppm", "result": 0, "unit": "%"}]}, {"compound": "C[C@@H]1C(=O)O[C@H]2C[C@@]34[C@H]5C[C@@H](C(C)(C)C)[C@]36[C@@H](OC(=O)[C@@H]6O)O[C@@]4(C(=O)O5)[C@]21O", "note": "[Ginkolide A, ginkgolide A]", "values": [{"measurement": "Average Control % [observed mortality]", "setting": "[2]", "result": 13, "unit": "%"}]}, {"compound": "O=[N+]([O-])NC1=NCCN1Cc1ccc(Cl)nc1", "note": "[Imidacloprid, imidacloprid]", "values": [{"measurement": "Average Control %", "setting": "[4]; 0.4 ppm", "result": 0, "unit": "%"}, {"measurement": "Average Control %", "setting": "[5]; 10 ppm", "result": 0, "unit": "%"}, {"measurement": "Average Control %", "setting": "[6]; 10 ppm", "result": 25, "unit": "%"}]}, {"compound": "O=C(NC(=O)c1c(F)cccc1F)Nc1cc(Cl)c(F)c(Cl)c1F", "note": "[Teflubenzuron, teflubenzuron]", "values": [{"measurement": "Average Control %", "setting": "[4]; 50 ppm", "result": 0, "unit": "%"}, {"measurement": "Average Control %", "setting": "[3]; 2 ppm", "result": 0, "unit": "%"}]}, {"compound": "CN(C(=O)c1ccccc1)c1cccc(C(=O)Nc2c(Br)cc(C(F)(C(F)(F)F)C(F)(F)F)cc2C(F)(F)F)c1F", "note": "[carboxamide compound of formula I]", "values": [{"measurement": "Average Control %", "setting": "[4]; 0.1 ppm", "result": 0, "unit": "%"}, {"measurement": "Average Control %", "setting": "[4]; 0.5 ppm", "result": 50, "unit": "%"}, {"measurement": "Average Control %", "setting": "[5]; 0.5 ppm", "result": 0, "unit": "%"}, {"measurement": "mortality at 1 ppm", "setting": "[2]; [7]", "result": 13, "unit": "%"}, {"measurement": "mortality at 10 ppm", "setting": "[2]; [7]", "result": 88, "unit": "%"}, {"measurement": "Average Control %", "setting": "[6]; 0 ppm (so in the source)", "result": 0, "unit": "%"}, {"measurement": "Average Control %", "setting": "[1]; 0 + 0.5 ppm", "result": 0, "unit": "%"}, {"measurement": "Average Control %", "setting": "[3]; 0.02 ppm", "result": 0, "unit": "%"}, {"measurement": "Average Control %", "setting": "[3]; 0.5 ppm", "result": 0, "unit": "%"}]}]}
